Read-outs that look alike come from different tables or passages of the source.
Key:
human recombinant MAGL = human recombinant MAGL (Homo sapiens (Human), UniProt Q99685); test: In vitro inhibition of human recombinant MAGL activity (Cayman inhibitor screening kit, 4-nitrophenylacetate hydrolysis); format: biochemical
Text: The inhibitory effect of the synthetic chemicals on activity of human recombinant MAGL was studied using commercial inhibitor screening kit (Cayman Chemical). […] The absorbance of the yellow product can be analyzed using the plate reader. […]

human recombinant FAAH = human recombinant FAAH (Homo sapiens (Human), UniProt O00519); test: In vitro inhibition of human recombinant FAAH activity (Cayman FAAH inhibitor screening kit, AMC arachidonoyl amide hydrolysis); format: biochemical
human recombinant FAAH, sequence (O00519 whole entry): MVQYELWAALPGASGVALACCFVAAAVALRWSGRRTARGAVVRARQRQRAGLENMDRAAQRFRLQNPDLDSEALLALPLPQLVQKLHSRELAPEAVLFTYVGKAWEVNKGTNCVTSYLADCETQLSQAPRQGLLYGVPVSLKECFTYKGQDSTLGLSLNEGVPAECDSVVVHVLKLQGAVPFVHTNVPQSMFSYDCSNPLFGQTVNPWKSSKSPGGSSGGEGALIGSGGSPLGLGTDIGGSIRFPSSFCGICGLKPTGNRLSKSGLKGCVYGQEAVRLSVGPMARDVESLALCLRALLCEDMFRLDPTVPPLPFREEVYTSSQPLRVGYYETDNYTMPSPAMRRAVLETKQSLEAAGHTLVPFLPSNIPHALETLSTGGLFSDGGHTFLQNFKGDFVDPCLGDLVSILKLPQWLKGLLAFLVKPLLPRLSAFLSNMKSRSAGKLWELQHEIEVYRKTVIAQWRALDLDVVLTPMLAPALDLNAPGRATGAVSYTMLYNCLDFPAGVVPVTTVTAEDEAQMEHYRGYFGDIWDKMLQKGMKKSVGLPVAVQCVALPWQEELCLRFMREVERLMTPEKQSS
Text: In brief, FAAH hydrolyzes AMC arachidonoyl amide resulting in the release of the fluorescent product, while the inhibitor will inhibit the FAAH activity and thus reduce the fluorescent signal.

[1] = human recombinant MAGL, read-out: Inhibition on MAGL activity (IC50)

human recombinant MAGL, sequence (Q99685 whole entry): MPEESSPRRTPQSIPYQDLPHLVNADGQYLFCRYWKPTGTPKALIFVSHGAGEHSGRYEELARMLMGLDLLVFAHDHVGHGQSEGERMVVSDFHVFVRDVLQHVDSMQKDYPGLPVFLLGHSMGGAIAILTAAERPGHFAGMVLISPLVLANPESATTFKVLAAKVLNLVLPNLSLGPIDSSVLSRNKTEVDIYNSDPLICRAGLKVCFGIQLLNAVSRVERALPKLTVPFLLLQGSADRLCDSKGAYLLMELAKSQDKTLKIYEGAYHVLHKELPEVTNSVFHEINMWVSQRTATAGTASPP

IC50 (human recombinant MAGL; [1]) | IC50 (human recombinant FAAH) | Compound | IC50 (human recombinant MAGL)
1 to 10 nM | > 50000 nM | N#Cc1ccc(C(c2ccc(C#N)cc2)N2CCN(C(=O)n3nnc4cc(C#N)ccc43)CC2)cc1 [Example 101, 4,4′-((4-(5-cyano-1H-benzo[d][1,2,3]triazole-1-carbonyl)piperazin-1-yl)methylene)dibenzonitrile] | 
1 to 10 nM | 1000 to 10000 nM | N#Cc1ccc(C(c2ccc(C#N)cc2)N2CCN(C(=O)n3cnc(C#N)n3)CC2)cc1 [Example 102, 4,4′-((4-(3-cyano-1H-1,2,4-triazole-1-carbonyl)piperazin-1-yl)methylene)dibenzonitrile] | 
1 to 10 nM | 1000 to 10000 nM | COc1ccc(C(c2cccnc2)N2CCN(C(=O)n3cnc(C#N)n3)CC2)cc1 (centres unmarked) [Example 104, 1-(4-((4-methoxyphenyl)(pyridin-3-yl)methyl)piperazine-1-carbonyl)-1H-1,2,4-triazole-3-carbonitrile] | 
1 to 10 nM | 1000 to 10000 nM | N#Cc1ncn(C(=O)N2CCN(C(c3ccc4c(c3)CCO4)c3ccc4c(c3)CCO4)CC2)n1 [Example 107, 1-(4-(bis(2,3-dihydrobenzofuran-5-yl)methyl)piperazine-1-carbonyl)-1H-1,2,4-triazole-3-carbonitrile] | 
1 to 10 nM | ~10000 nM | O=C(N1CCN(C(c2ccc3c(c2)CCO3)c2ccc3c(c2)CCO3)CC1)n1nnc2ccccc21 [Example 108, (1H-benzo[d][1,2,3]triazol-1-yl)(4-(bis(2,3-dihydrobenzofuran-5-yl)methyl)piperazin-1-yl)methanone] | 
10 to 100 nM | ~50000 nM | O=C(N1CCN(C(c2ccc3ncccc3c2)c2ccc3ncccc3c2)CC1)n1nnc2ccccc21 [Example 109, (1H-benzo[d][1,2,3]triazol-1-yl)(4-(di(quinolin-6-yl)methyl)piperazin-1-yl)methanone] | 
1 to 10 nM | ~10000 nM | Cn1ncc2cc(C(c3ccc4c(cnn4C)c3)N3CCN(C(=O)n4cnc(C#N)n4)CC3)ccc21 [Example 111, 1-(4-(bis(1-methyl-1H-indazol-5-yl)methyl)piperazine-1-carbonyl)-1H-1,2,4-triazole-3-carbonitrile] | 
10 to 100 nM | ~50000 nM | Cn1ncc2cc(C(c3ccc4c(cnn4C)c3)N3CCN(C(=O)n4nnc5ccccc54)CC3)ccc21 [Example 112, (1H-benzo[d][1,2,3]triazol-1-yl)(4-(bis(1-methyl-1H-indazol-5-yl)methyl)piperazin-1-yl)methanone] | 
1 to 10 nM | ~10000 nM | COc1ccc(C(c2ccc(OC)nc2)N2CCN(C(=O)n3cnc(C#N)n3)CC2)cn1 [Example 114, 1-(4-(bis(6-methoxypyridin-3-yl)methyl)piperazine-1-carbonyl)-1H-1,2,4-triazole-3-carbonitrile] | 
1 to 10 nM | 10000 to 50000 nM | N#Cc1ncn(C(=O)N2CCN(C(c3ccc(-n4cccn4)cc3)c3ccc(-n4cccn4)cc3)CC2)n1 [Example 116, 1-(4-(bis(4-(1H-pyrazol-1-yl)phenyl)methyl)piperazine-1-carbonyl)-1H-1,2,4-triazole-3-carbonitrile] | 
1 to 10 nM | 100 to 1000 nM | N#Cc1ncn(C(=O)N2CCN(C(c3ccc4occc4c3)c3ccc4occc4c3)CC2)n1 [Example 117, 1-(4-(di(benzofuran-5-yl)methyl)piperazine-1-carbonyl)-1H-1,2,4-triazole-3-carbonitrile] | 
1 to 10 nM | ~10000 nM | COc1ccc(C(c2ccc3c(c2)COCO3)N2CCN(C(=O)n3cnc(C#N)n3)CC2)cn1 (centres unmarked) [Example 118, 1-(4-((4H-benzo[d][1,3]dioxin-6-yl)(6-methoxypyridin-3-yl)methyl)piperazine-1-carbonyl)-1H-1,2,4-triazole-3-carbonitrile] | 
1 to 10 nM | > 50000 nM | N#Cc1ncn(C(=O)N2CCN(C(c3ccc(-n4cccn4)cc3)c3ccc4c(c3)COCO4)CC2)n1 (centres unmarked) [Example 120, 1-(4-((4-(1H-pyrazol-1-yl)phenyl)(4H-benzo[d][1,3]dioxin-6-yl)methyl)piperazine-1-carbonyl)-1H-1,2,4-triazole-3-carbonitrile] | 
1 to 10 nM | ~100 nM | N#Cc1ccc2c(c1)nnn2C(=O)N1CCN(C(c2ccc(F)cc2)c2ccc(F)cc2)CC1 [Example 121, 1-(4-(bis(4-fluorophenyl)methyl)piperazine-1-carbonyl)-1H-benzo[d][1,2,3]triazole-5-carbonitrile] | 
10 to 100 nM | ~50000 nM | Cn1ncc2cc(C(=C3CCN(C(=O)n4nnc5ccccc54)CC3)c3ccc4c(cnn4C)c3)ccc21 [Example 122, (1H-benzo[d][1,2,3]triazol-1-yl)(4-(bis(1-methyl-1H-indazol-5-yl)methylene)piperidin-1-yl)methanone] | 
1 to 10 nM | ~10000 nM | Cn1ncc2cc(C(=C3CCN(C(=O)n4cnc(C#N)n4)CC3)c3ccc4c(cnn4C)c3)ccc21 [Example 123, 1-(4-(bis(1-methyl-1H-indazol-5-yl)methylene)piperidine-1-carbonyl)-1H-1,2,4-triazole-3-carbonitrile] | 
1 to 10 nM | 1000 to 10000 nM | N#Cc1ncn(C(=O)N2CCC(=C(c3ccc4c(c3)COCO4)c3ccc4c(c3)COCO4)CC2)n1 [Example 124, 1-(4-(bis(4H-benzo[d][1,3]dioxin-6-yl)methylene)piperidine-1-carbonyl)-1H-1,2,4-triazole-3-carbonitrile] | 
1 to 10 nM | 1000 to 10000 nM | N#Cc1ncn(C(=O)N2CC3CC(=C(c4ccc5c(c4)COCO5)c4ccc5c(c4)COCO5)CC3C2)n1 (stereo not drawn) [Example 125, meso-1-(5-(bis(4H-benzo[d][1,3]dioxin-6-yl)methylene)octahydrocyclopenta[c]pyrrole-2-carbonyl)-1H-1,2,4-triazole-3-carbonitrile] | 
1 to 10 nM | 1000 to 10000 nM | N#Cc1ncn(C(=O)N2CC3(CC(=C(c4ccc5c(c4)COCO5)c4ccc5c(c4)COCO5)C3)C2)n1 [Example 126, 1-(6-(bis(4H-benzo[d][1,3]dioxin-6-yl)methylene)-2-azaspiro[3.3]heptane-2-carbonyl)-1H-1,2,4-triazole-3-carbonitrile] | 
1 to 10 nM | 1000 to 10000 nM | N#Cc1ncn(C(=O)N2CCCC(=C(c3ccc4c(c3)COCO4)c3ccc4c(c3)COCO4)CC2)n1 [Example 128, 1-(4-(bis(4H-benzo[d][1,3]dioxin-6-yl)methylene)azepane-1-carbonyl)-1H-1,2,4-triazole-3-carbonitrile] | 
1 to 10 nM | 1000 to 10000 nM | N#Cc1ncn(C(=O)N2CCC(C(c3ccc4c(c3)COCO4)c3ccc4c(c3)COCO4)CC2)n1 [Example 129, 1-(4-(bis(4H-benzo[d][1,3]dioxin-6-yl)methyl)piperidine-1-carbonyl)-1H-1,2,4-triazole-3-carbonitrile] | 
> 50000 nM | 106 nM | O=C(Nc1cnccc1Cl)N1CCN(Cc2ccc3c(c2)OC(F)(F)O3)CC1 [JNJ-42165279, reference compound] | 
> 10000 nM | 1.9 nM | O=C(Nc1cccnn1)N1CCC(=Cc2cccc(Oc3ccc(C(F)(F)F)cn3)c2)CC1 [PF-04457845, reference compound] | 

Compound | IC50 (human recombinant MAGL; [1]) | IC50 (human recombinant FAAH) | IC50 (human recombinant MAGL)
N#Cc1ncn(C(=O)N2C3CCC2CC(=C(c2ccc4c(c2)COCO4)c2ccc4c(c2)COCO4)C3)n1 [Example 127, 1-(3-(bis(4H-benzo[d][1,3]dioxin-6-yl)methylene)-8-azabicyclo[3.2.1]octane-8-carbonyl)-1H-1,2,4-triazole-3-carbonitrile] |  | > 50000 nM | 1 to 10 nM
N#Cc1ncn(C(=O)N2C3CCC2CC(C(c2ccc4c(c2)COCO4)c2ccc4c(c2)COCO4)C3)n1 (centres unmarked) [Example 130, 1-(3-(bis(4H-benzo[d][1,3]dioxin-6-yl)methyl)-8-azabicyclo[3.2.1]octane-8-carbonyl)-1H-1,2,4-triazole-3-carbonitrile] |  | > 50000 nM | 1 to 10 nM

— US12378231B2, “Small molecules as monoacylglycerol lipase (MAGL) inhibitors, compositions and use thereof” (APOGEE PHARMACEUTICALS, INC., priority 2023, dated 2025)
